By IC50 is commonly meant the concentration needed to halve the response being measured.

Structures are written as SMILES. Where a name gives a salt, the structure may show the parent alone.

In the first assay the target is T1, human NHE3 (Homo sapiens, UniProt P48764).
T1 sequence (P48764 26-834): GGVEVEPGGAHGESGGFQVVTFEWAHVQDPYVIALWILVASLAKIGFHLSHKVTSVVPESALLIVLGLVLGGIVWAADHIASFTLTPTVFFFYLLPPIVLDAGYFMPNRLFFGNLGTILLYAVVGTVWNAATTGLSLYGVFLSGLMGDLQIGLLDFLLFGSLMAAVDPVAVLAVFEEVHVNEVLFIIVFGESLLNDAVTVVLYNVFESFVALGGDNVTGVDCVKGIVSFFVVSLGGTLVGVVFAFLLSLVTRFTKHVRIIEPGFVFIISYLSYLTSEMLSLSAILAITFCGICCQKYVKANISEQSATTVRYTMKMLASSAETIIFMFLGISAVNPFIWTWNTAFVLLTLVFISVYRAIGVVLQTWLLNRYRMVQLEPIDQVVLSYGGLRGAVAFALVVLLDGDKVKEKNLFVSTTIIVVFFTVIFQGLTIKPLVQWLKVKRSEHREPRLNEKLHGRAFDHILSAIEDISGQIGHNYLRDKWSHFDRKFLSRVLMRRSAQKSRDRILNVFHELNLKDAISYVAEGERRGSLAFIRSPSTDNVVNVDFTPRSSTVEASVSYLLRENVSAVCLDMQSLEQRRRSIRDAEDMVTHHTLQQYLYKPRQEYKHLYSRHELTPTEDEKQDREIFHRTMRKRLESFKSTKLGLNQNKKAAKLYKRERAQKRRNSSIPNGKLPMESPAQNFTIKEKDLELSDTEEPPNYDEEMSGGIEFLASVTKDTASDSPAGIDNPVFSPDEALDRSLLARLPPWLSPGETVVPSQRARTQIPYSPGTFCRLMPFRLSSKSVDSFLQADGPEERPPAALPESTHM
Nature of the assay: NHE3 inhibition test (recovery of intracellular pH in cell line stably expressing human NHE3). The class given is cell-based. The settings on record: OK cells deficient in endogenous NHE stably expressing human NHE3; BCECF fluorescence, initial rate of pH recovery; read-out: human NHE3 inhibitory activity IC50. The method, boiled down: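 Opossum kidney cells lacking endogenous NHE, stably expressing human NHE3, loaded with BCECF-AM and acid-loaded by NH4Cl washout. Compound in Na-free buffer, then Na-containing buffer (pH 7.4) added; initial pH-recovery rate by BCECF fluorescence, IC50 versus no-compound recovery.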
As for `CN1Cc2c(Cl)cc(Cl)cc2[C@H](c2cccc(-c3cn(CCOCCOCCOCCNC(=O)NCCCCNC(=O)NCCOCCOCCOCCn4cc(-c5cccc([C@@H]6CN(C)Cc7c(Cl)cc(Cl)cc76)c5)nn4)nn3)c2)C1` [Example 6-2, 1,1′-Butane-1,4-diylbis {3-[2-(2-{2-[2-(4-{3-[(4S)-6,8-dichloro-2-methyl-1,2,3,4-tetrahydroisoquinolin-4-yl]phenyl}-1H-1,2,3-triazol-1-yl)ethoxy]ethoxy}ethoxy)ethyl]urea}hydrochloride], the half-maximal inhibitory concentration (IC50) was 5.7 nM. Still for that read-out and setting: then `CN1Cc2c(Cl)cc(Cl)cc2[C@H](c2cccc(-c3cc(NCCOCCOCCOCCNC(=O)[C@H](O)[C@@H](O)C(=O)NCCOCCOCCOCCNc4cc(-c5cccc([C@@H]6CN(C)Cc7c(Cl)cc(Cl)cc76)c5)ncn4)ncn3)c2)C1` [Example 8-10, (2R,3R)-N,N′-Bis{2-[2-(2-{2-[(6-{3-[(4S)-6,8-dichloro-2-methyl-1,2,3,4-tetrahydroisoquinolin-4-yl]phenyl}pyrimidin-4-yl)amino]ethoxy}ethoxy)ethoxy]ethyl}-2,3-dihydroxybutanediamide hydrochloride], with 3.2 nM; and `CN1Cc2c(Cl)cc(Cl)cc2[C@@H](c2cccc(-c3cc(NCCOCCOCCOCCNC(=O)COCC(=O)NCCOCCOCCOCCNc4cc(-c5cccc([C@@H]6CN(C)Cc7c(Cl)cc(Cl)cc76)c5)ncn4)ncn3)c2)C1` [Example 8-11, 1-[(6-{3-[(4R)-6,8-Dichloro-2-methyl-1,2,3,4-tetrahydroisoquinolin-4-yl]phenyl}pyrimidin-4-yl)amino]-N-{2-[2-(2-{2-[(6-{3-[(4S)-6,8-dichloro-2-methyl-1,2,3,4-tetrahydroisoquinolin-4-yl]phenyl}pyrimidin-4-yl)amino]ethoxy}ethoxy)ethoxy]ethyl}-13-oxo-3,6,9,15-tetraoxa-12-azaheptadecan-17-amide hydrochloride], with 7.5 nM. Same read-out and setting: to `CN1Cc2c(Cl)cc(Cl)cc2[C@H](c2cccc(-c3cc(NCCOCCOCCOCCNC(=O)CCCCC(=O)NCCOCCOCCOCCNc4cc(-c5cccc([C@@H]6CN(C)Cc7c(Cl)cc(Cl)cc76)c5)ncn4)ncn3)c2)C1` [Example 8-13, N,N′-Bis{2-[2-(2-{2-[(6-{3-[(4S)-6,8-dichloro-2-methyl-1,2,3,4-tetrahydroisoquinolin-4-yl]phenyl}pyrimidin-4-yl)amino]ethoxy}ethoxy)ethoxy]ethyl}hexanediamide hydrochloride] belongs 10.6 nM; to `CN1Cc2c(Cl)cc(Cl)cc2[C@H](c2cccc(-c3nnc(CCOCCOCCOCCNC(=O)[C@H](O)[C@@H](O)C(=O)NCCOCCOCCOCCc4nnc(-c5cccc([C@@H]6CN(C)Cc7c(Cl)cc(Cl)cc76)c5)[nH]4)[nH]3)c2)C1` [Example 8-15, (2R,3R)-N,N′-Bis[2-(2-{2-[2-(5-{3-[(4S)-6,8-dichloro-2-methyl-1,2,3,4-tetrahydroisoquinolin-4-yl]phenyl}-4H-1,2,4-triazol-3-yl)ethoxy]ethoxy}ethoxy)ethyl]-2,3-dihydroxybutanediamide diformate], 1.9 nM.

As to `CN1Cc2c(Cl)cc(Cl)cc2[C@H](c2cccc(-c3cnnc(NCCOCCOCCOCCNC(=O)[C@H](O)[C@@H](O)C(=O)NCCOCCOCCOCCNc4cc(-c5cccc([C@@H]6CN(C)Cc7c(Cl)cc(Cl)cc76)c5)cnn4)c3)c2)C1` [Example 8-19, (2R,3R)-N,N′-Bis{2-[2-(2-{2-[(5-{3-[(4S)-6,8-dichloro-2-methyl-1,2,3,4-tetrahydroisoquinolin-4-yl]phenyl}pyridazin-3-yl)amino]ethoxy}ethoxy)ethoxy]ethyl}-2,3-dihydroxybutanediamide tetrahydrochloride], the IC50 was found to be 6.8 nM. On the same count and under the same terms, to `CN1Cc2c(Cl)cc(Cl)cc2[C@H](c2cccc(-c3cnc(NCCOCCOCCOCCNC(=O)[C@H](O)[C@@H](O)C(=O)NCCOCCOCCOCCNc4ncc(-c5cccc([C@@H]6CN(C)Cc7c(Cl)cc(Cl)cc76)c5)cn4)nc3)c2)C1` [Example 8-21, (2R,3R)-N,N′-Bis{2-[2-(2-{2-[(5-{3-[(4S)-6,8-dichloro-2-methyl-1,2,3,4-tetrahydroisoquinolin-4-yl]phenyl}pyrimidin-2-yl)amino]ethoxy}ethoxy)ethoxy]ethyl}-2,3-dihydroxybutanediamide formate] belongs 3.2 nM; to `CN1Cc2c(Cl)cc(Cl)cc2[C@H](c2cccc(-c3cc(OCCOCCOCCOCCNC(=O)CCC(=O)NCCOCCOCCOCCOc4cc(-c5cccc([C@@H]6CN(C)Cc7c(Cl)cc(Cl)cc76)c5)ncn4)ncn3)c2)C1` [Example 8-22, N,N′-Bis{2-[2-(2-{2-[(6-{3-[(4S)-6,8-dichloro-2-methyl-1,2,3,4-tetrahydroisoquinolin-4-yl]phenyl}pyrimidin-4-yl)oxy]ethoxy}ethoxy)ethoxy]ethyl}butanediamide hydrochloride], 10.5 nM. On the same count and under the same terms, to `CN1Cc2c(Cl)cc(Cl)cc2[C@H](c2cccc(-c3cc(OCCOCCOCCOCCNC(=O)CCCCC(=O)NCCOCCOCCOCCOc4cc(-c5cccc([C@@H]6CN(C)Cc7c(Cl)cc(Cl)cc76)c5)ncn4)ncn3)c2)C1` [Example 8-23, N,N′-Bis{2-[2-(2-{2-[(6-{3-[(4S)-6,8-dichloro-2-methyl-1,2,3,4-tetrahydroisoquinolin-4-yl]phenyl}pyrimidin-4-yl)oxy]ethoxy}ethoxy)ethoxy]ethyl}hexanediamide hydrochloride] belongs 4.7 nM; to `CN1Cc2c(Cl)cc(Cl)cc2[C@H](c2cccc(-c3nnc(CCOCCOCCOCCNC(=O)[C@@H](O)[C@H](O)[C@H](O)[C@@H](O)C(=O)NCCOCCOCCOCCc4nnc(-c5cccc([C@@H]6CN(C)Cc7c(Cl)cc(Cl)cc76)c5)[nH]4)[nH]3)c2)C1` [Example 8-24, (2R,3S,4R,5S)-N,N′-Bis[2-(2-{2-[2-(5-{3-[(4S)-6,8-dichloro-2-methyl-1,2,3,4-tetrahydroisoquinolin-4-yl]phenyl}-4H-1,2,4-triazol-3-yl)ethoxy]ethoxy}ethoxy)ethyl]-2,3,4,5-tetrahydroxyhexanediamide hydrochloride], 3.4 nM; to `CN1Cc2c(Cl)cc(Cl)cc2[C@H](c2cccc(-c3nnn(CCOCCOCCOCCNC(=O)[C@@H](O)[C@H](O)[C@H](O)[C@@H](O)C(=O)NCCOCCOCCOCCn4nnc(-c5cccc([C@@H]6CN(C)Cc7c(Cl)cc(Cl)cc76)c5)n4)n3)c2)C1` [Example 8-25, (2R,3S,4R,5S)-N,N′-Bis[2-(2-{2-[2-(5-{3-[(4S)-6,8-dichloro-2-methyl-1,2,3,4-tetrahydroisoquinolin-4-yl]phenyl}-2H-tetrazol-2-yl)ethoxy]ethoxy}ethoxy)ethyl]-2,3,4,5-tetrahydroxyhexanediamide hydrochloride], 0.2 nM.

Turning to `CN1Cc2c(Cl)cc(Cl)cc2[C@H](c2cccc(-c3cc(NCCOCCOCCOCCNC(=O)[C@@H](O)[C@H](O)[C@H](O)[C@@H](O)C(=O)NCCOCCOCCOCCNc4cc(-c5cccc([C@@H]6CN(C)Cc7c(Cl)cc(Cl)cc76)c5)ncn4)ncn3)c2)C1` [Example 8-26, (2R,3S,4R,5S)-N,N′-Bis{2-[2-(2-{2-[(6-{3-[(4S)-6,8-dichloro-2-methyl-1,2,3,4-tetrahydroisoquinolin-4-yl]phenyl}pyrimidin-4-yl)amino]ethoxy}ethoxy)ethoxy]ethyl}-2,3,4,5-tetrahydroxyhexanediamide hydrochloride], the IC50 is 2.2 nM. On the same count and under the same terms, then `CN1Cc2c(Cl)cc(Cl)cc2[C@H](c2cccc(-c3cn(CCOCCOCCOCCNC(=O)CN(CCN(CC(=O)NCCOCCOCCOCCn4cc(-c5cccc([C@@H]6CN(C)Cc7c(Cl)cc(Cl)cc76)c5)nn4)CC(=O)NCCOCCOCCOCCn4cc(-c5cccc([C@@H]6CN(C)Cc7c(Cl)cc(Cl)cc76)c5)nn4)CC(=O)NCCOCCOCCOCCn4cc(-c5cccc([C@@H]6CN(C)Cc7c(Cl)cc(Cl)cc76)c5)nn4)nn3)c2)C1` [Example 9-1, hydrochloride], with 13.1 nM.

A further assay relates to SD rat. Put plainly: 32P-phosphate oral loading test using SD rat (phosphorus absorption inhibitory effect). Format: in vivo. To be noted: Rattus norvegicus, 0.5 h; SD male rats, oral dose 1 mg/kg; plasma radioactivity 30 minutes after 32P-phosphate solution, vs control group; read-out: Rate of inhibition of phosphate absorption. As for the experimental part:
Phosphorus Absorption Inhibitory Effect of the Compound of the Present Invention in ^32P-Phosphate Oral Loading Test Using SD Rat
8-week-old SD male rats (Japan SLC, Inc.) were used as laboratory animals. Each test compound was suspended or dissolved at a concentration of 0.2 mg/mL or 0.6 mg/mL in Japanese Pharmacopoeia water for injection (manufactured by Hikari Pharmaceutical Co., Ltd.) and orally administered to each rat at a dose of 5 ml/kg body weight. Japanese Pharmacopoeia water for injection was administered at the same dose as above to a control group. 5 minutes after the administration of the test compound or water for injection, a phosphate solution (1.3 mM NaH2PO4) containing 32P-phosphate (PerkinElmer Inc.) was administered thereto at a dose of 5 ml/kg. 30 minutes after the administration of the phosphate solution, blood was collected from the tail vein, and the blood sample was immediately mixed with EDTA-2K (manufactured by Dojindo Laboratories). Then, the mixture was centrifuged at 3000 rpm at 4° C. for 10 minutes to recover plasma.
The radioactivity in 100 μL of the plasma was measured using a liquid scintillation counter and used as a phosphate absorption count. The radioactivity in the plasma of the control group was used as a control, and the rate of inhibition of phosphate absorption was determined according to the following expression: Rate of inhibition of phosphate absorption (%)=(1−Phosphate absorption count of the test compound administration group/Phosphate absorption count of the control group)×100 (2) Results
With `CN1Cc2c(Cl)cc(Cl)cc2[C@H](c2cccc(-c3cn(CCOCCOCCOCCNC(=O)NCCCCNC(=O)NCCOCCOCCOCCn4cc(-c5cccc([C@@H]6CN(C)Cc7c(Cl)cc(Cl)cc76)c5)nn4)nn3)c2)C1` [Example 6-2, 1,1′-Butane-1,4-diylbis {3-[2-(2-{2-[2-(4-{3-[(4S)-6,8-dichloro-2-methyl-1,2,3,4-tetrahydroisoquinolin-4-yl]phenyl}-1H-1,2,3-triazol-1-yl)ethoxy]ethoxy}ethoxy)ethyl]urea}hydrochloride], the inhibition in vivo at 1 mg/kg worked out at 47%.
